The supplement of paper PMC10307832

Assays:
Assay in all cases: relative viability (nuclei count vs DMSO), 5 days (fraction); higher = more cells survive
FG-4592 + Vorinostat = compound: Cc1nc(C(=O)NCC(=O)O)c(O)c2ccc(Oc3ccccc3)cc12 [FG-4592] + O=C(CCCCCCC(=O)Nc1ccccc1)NO [Vorinostat] (partner 1 µM)
Procedure, shortened: (§1)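 The day after seeding in 1536-well plates, lung cancer cell lines were treated by pin tool with a single drug, or with a fixed anchor-drug dose together with five library-drug doses (not always all listed) in √10 steps. After 5 days, a combined fix-and-stain solution (final 0.05% Triton X-100, 1% formaldehyde, 1 ug/ml Hoechst) was added. Nuclei counted on 4× images gave relative viability as treated counts over vehicle counts, reported as the median of duplicate plates.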

IU1-47 + Alpelisib = compound: CC1=CC(=C(N1C2=CC=C(C=C2)Cl)C)C(=O)CN3CCCCC3 [IU1-47] + Cc1nc(NC(=O)N2CCC[C@H]2C(N)=O)sc1-c1ccnc(C(C)(C)C(F)(F)F)c1 [Alpelisib] (partner 2 µM)
Procedure, shortened: as §1

IU1-47 + Vorinostat = compound: CC1=CC(=C(N1C2=CC=C(C=C2)Cl)C)C(=O)CN3CCCCC3 [IU1-47] + O=C(CCCCCCC(=O)Nc1ccccc1)NO [Vorinostat] (partner 1 µM)
Procedure, shortened: as §1

IU1-47 + Foretinib = compound: CC1=CC(=C(N1C2=CC=C(C=C2)Cl)C)C(=O)CN3CCCCC3 [IU1-47] + COc1cc2c(Oc3ccc(NC(=O)C4(C(=O)Nc5ccc(F)cc5)CC4)cc3F)ccnc2cc1OCCCN1CCOCC1 [Foretinib] (partner 0.25 µM)
Procedure, shortened: as §1

UMC-11
relative viability (FG-4592 + Vorinostat; first compound 0.08 µM): 0.363
relative viability (FG-4592 + Vorinostat; first compound 0.253 µM): 0.333
relative viability (FG-4592 + Vorinostat; first compound 0.8 µM): 0.361
relative viability (FG-4592 + Vorinostat; first compound 2.53 µM): 0.511
relative viability (FG-4592 + Vorinostat; first compound 8 µM): 0.332
relative viability (IU1-47 + Alpelisib; first compound 0.08 µM): 1.09
relative viability (IU1-47 + Alpelisib; first compound 0.253 µM): 1.1
relative viability (IU1-47 + Alpelisib; first compound 0.8 µM): 1.02
relative viability (IU1-47 + Alpelisib; first compound 2.53 µM): 1.24
relative viability (IU1-47 + Alpelisib; first compound 8 µM): 0.735
relative viability (IU1-47 + Vorinostat; first compound 0.08 µM): 0.409
relative viability (IU1-47 + Vorinostat; first compound 0.253 µM): 0.408
relative viability (IU1-47 + Vorinostat; first compound 0.8 µM): 0.374
relative viability (IU1-47 + Vorinostat; first compound 2.53 µM): 0.413
relative viability (IU1-47 + Vorinostat; first compound 8 µM): 0.377
relative viability (IU1-47 + Foretinib; first compound 0.08 µM): 1.13
relative viability (IU1-47 + Foretinib; first compound 0.253 µM): 0.99
relative viability (IU1-47 + Foretinib; first compound 0.8 µM): 1.25
relative viability (IU1-47 + Foretinib; first compound 2.53 µM): 1.15
relative viability (IU1-47 + Foretinib; first compound 8 µM): 1.13
